This passage reports Kd and IC50 results from US20240025906A1 (NEURON23, INC., priority 2022, published 2024).

One assay deals with T1, TYK2 JH2 (Homo sapiens, UniProt P29597).
T1 construct: purchased DiscoverX (KINOMEscan KdELECT service); host or cells: E. coli BL21-derived (T7 phage display) or HEK-293
Kind of assay: TYK2 JH2 binding assay (KINOMEscan KdELECT competitive binding). Particulars: TYK2 JH2 domain, read-out: Biochemical TYK2_DiscoverX_JH2_BND_Kd. As for the experimental part:
Assay A: TYK2 JH2 Binding Assay
Competitive binding studies using TKY2 JH2-domain fragments were conducted by DiscoverX using the KINOMEscan (KdELECT) platform. Kinase-tagged T7 phage strains were prepared in an E. coli host derived from the BL21 strain. E. coli were grown to log-phase and infected with […] and incubated with shaking at 32° C. until lysis. The lysates were centrifuged and filtered to remove cell debris. The remaining kinases were produced in HEK-293 cells and subsequently tagged with DNA for qPCR detection. Streptavidin-coated magnetic beads were treated with biotinylated small molecule ligands for 30 minutes at room temperature to generate affinity resins for kinase assays. The liganded beads were blocked with excess biotin and washed with blocking buffer (SeaBlock (Pierce), 1% BSA, 0.05% Tween 20, 1 mM DTT) to remove unbound ligand and to reduce non-specific binding. Binding reactions were assembled by combining kinases, liganded affinity beads, and test compounds in 1× binding buffer (20% SeaBlock, 0.17×PBS, 0.05% Tween 20, 6 mM DTT). Test compounds were prepared as 111× stocks in 100% DMSO. Kds were determined using an 11-point 3-fold compound dilution series with three DMSO control points. All compounds for Kd measurements are distributed by acoustic transfer (non-contact dispensing) in 100% DMSO. The compounds were then diluted directly into the assays such that the final concentration of DMSO was 0.9%. All reactions performed in polypropylene 384-well plate. Each was a final volume of 0.02 ml. The assay plates were incubated at room temperature with shaking for 1 hour and the affinity beads were washed with wash buffer (1×PBS, 0.05% Tween 20). The beads were then re-suspended in elution buffer (1×PBS, 0.05% Tween 20, 0.5 μM non-biotinylated affinity ligand) and incubated at room temperature with shaking for 30 minutes. The kinase concentration in the eluates was measured by qPCR.

The subject of assay [1] is JAK1/TYK2 pSTAT5 (Tyr694/699) in THP-1 cell line. Nature of the assay: IFNa-stimulated JAK1/TYK2 pSTAT5 (Tyr694/699) inhibition cellular assay, AlphaLISA. Type of assay: cell-based. The settings on record: THP-1 cells, IFNa-stimulated, AlphaLISA (Assay B), read-out: Cellular_THP1_IFNa-pSTATS_TYK2. How it is done:
Assay B: JAK1/TYK2 pSTAT5 (Tyr694/699) inhibition IC50 Cellular Assays
To evaluate the inhibition effect of compounds disclosed herein against TYK2, an IFNa-stimulated JAE1/TYK2 pSTAT5 (Tyr694/699) quantification assay was conducted in the THP-1 cell line using an AlphaLISA detection method (PerkinElmer ALSU-PST5). Compounds in DMSO were serially diluted in a 96-well plate (10 mM starting concentration, 6-fold dilutions, 8 concentrations total) prior to dispensing of 8 nL into a 384-well plate using an I.DOT non-contact liquid handler (Dispendix). Cells were collected via centrifugation at 300 ref for 5 min and resuspended in Hanks' Balanced Salt Solution (Gibco 14175-079), and 6 μl containing 2e4 cells was dispensed into each well of the 384-well plate containing test compounds or DMSO alone (final concentrations: 10000, 1666.67, 277.78, 46.30, 7.72, 1.29, 0.21 and 0.04 nM). Cells were then incubated for 1 h at 37° C. with 5% CO2 prior to the addition of 2 μL IFNa (100 ng/mL; PBL Assay Science 11175-1). Following an additional 30 min incubation at 37° C. with 5% CO2, 2 μL of 5× lysis buffer was added to each well using the I.DOT […]. Plates were sealed and incubated at RT for 10 min on a plate shaker set to 400 RPM. Cell lysates were then frozen at −80° C. before subsequent detection of pSTAT5 by AlphaLISA. At the time of the detection assay, cell lysates were thawed for 5 min at room temperature and then on a plate shaker set to 400 RPM for an additional 10 min. Following the manufacturer recommended protocol (Perkin Elmer), 5 μL of acceptor bead master mix was added to each well; plates were then resealed and incubated for 2 min at RT on a plate shaker (400 rpm) prior to an additional 2-h incubation without agitation (protected from light). Donor bead master mix, 5 uL per well, was then added to each well before 2 min of shaking (RT, 400 rpm) and 2-h incubation (RT, no shaking, protected from light). Levels of pSTAT5 protein were then measured as fluorescent signal at 615 nm with an EnVision multimode plate reader (Perkin Elmer). IC50 values were calculated in Dotmatics using the four-parameter logistic curve regression model with bottom fixed to 0 and Hill Slope fixed to −1.
(In general: Alpha assays give light when donor and acceptor beads are brought close together.)

[2] abbreviates: DiscoverX KINOMEscan KdELECT (Assay A).

Like-named read-outs stand apart in the source and are kept apart here.

T1 sequence (P29597 589-875 limits assumed): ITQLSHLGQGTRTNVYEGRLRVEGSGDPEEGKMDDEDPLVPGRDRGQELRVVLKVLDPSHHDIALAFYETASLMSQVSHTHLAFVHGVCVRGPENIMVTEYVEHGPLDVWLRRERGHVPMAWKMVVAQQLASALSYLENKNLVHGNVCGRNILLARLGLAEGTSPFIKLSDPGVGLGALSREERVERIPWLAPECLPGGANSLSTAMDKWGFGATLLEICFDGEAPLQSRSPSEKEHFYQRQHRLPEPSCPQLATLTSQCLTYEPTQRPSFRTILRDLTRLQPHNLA

With `CNc1ncc(-c2nc3cc(OC)ccc3o2)c2cc(NC(=O)[C@@H]3C[C@@H]3C(F)(F)F)ncc12` (racemic) [Example 396, N-(5-(5-methoxybenzo[d]oxazol-2-yl)-8-(methylamino)-2,7-naphthyridin-3-yl)-2-(trifluoromethyl)cyclopropane-1-carboxamide], the Kd on TYK2 JH2 (setting [2]) is no more than 100 nM. For the same compound, the IC50 in assay [1] (Homo sapiens) was no more than 500 nM.
In the same order, the values of `CNc1ncc(-c2nc3cc(OC)ccc3o2)c2cc(NC(=O)[C@@H]3C[C@@H]3CF)ncc12` (racemic) [Example 399, 2-(fluoromethyl)-N-(5-(5-methoxybenzo[d]oxazol-2-yl)-8-(methylamino)-2,7-naphthyridin-3-yl)cyclopropane-1-carboxamide] are no more than 100 nM and no more than 500 nM.
For `CNc1ncc(-c2nc3cc(OC)ccc3o2)c2cc(NC(=O)[C@H]3C[C@H]3C(C)(C)O)ncc12` (racemic) [Example 405, 2-(2-hydroxypropan-2-yl)-N-(5-(5-methoxybenzo[d]oxazol-2-yl)-8-(methylamino)-2,7-naphthyridin-3-yl)cyclopropane-1-carboxamide], in that order: no more than 100 nM and no more than 500 nM.
In the same order, the values of `CNc1ncc(-c2nc3cc(OC)ccc3o2)c2cc(NC(=O)[C@H]3C[C@@H]3C(C)(C)O)ncc12` (racemic) [Example 406, 2-(2-hydroxypropan-2-yl)-N-(5-(5-methoxybenzo[d]oxazol-2-yl)-8-(methylamino)-2,7-naphthyridin-3-yl)cyclopropane-1-carboxamide] are no more than 100 nM and no more than 500 nM.
For the compound `CNc1ncc(-c2nc3cc(N4CCO[C@@H](C)C4)ccc3o2)c2cc(NC(=O)[C@@H]3C[C@@H]3CF)ncc12` (racemic) [Example 410, 2-(fluoromethyl)-N-(8-(methylamino)-5-(5-((S)-2-methylmorpholino)benzo[d]oxazol-2-yl)-2,7-naphthyridin-3-yl)cyclopropane-1-carboxamide], at TYK2 JH2 (setting [2]), the Kd was no more than 100 nM. The IC50 in assay [1] (Homo sapiens) is no more than 500 nM.
On to `CNc1ncc(-c2nc3cc(N4CCO[C@@H](C)C4)ccc3o2)c2cc(NC(=O)[C@@H]3C[C@@H]3C(F)F)ncc12` (racemic) [Example 413, 2-(difluoromethyl)-N-(8-(methylamino)-5-(5-((S)-2-methylmorpholino)benzo[d]oxazol-2-yl)-2,7-naphthyridin-3-yl)cyclopropane-1-carboxamide], for which, at TYK2 JH2 (setting [2]), the Kd is no more than 100 nM. In assay [1] (Homo sapiens), the IC50 is no more than 500 nM.
In the same order, the values of `CNc1ncc(-c2nc3cc(N4CCO[C@@H](C)C4)ccc3o2)c2cc(NC(=O)[C@H]3C[C@H]3C(C)(C)O)ncc12` (racemic) [Example 416, 2-(2-hydroxypropan-2-yl)-N-(8-(methylamino)-5-(5-((S)-2-methylmorpholino)benzo[d]oxazol-2-yl)-2,7-naphthyridin-3-yl)cyclopropane-1-carboxamide] are no more than 100 nM and no more than 500 nM.
Consider `[2H]C([2H])([2H])Nc1ncc(-c2nc3ccccc3o2)c2cc(NC(=O)C3CC3F)ncc12` (racemic) [Example 433, N-(5-(benzo[d]oxazol-2-yl)-8-((methyl-d3)amino)-2,7-naphthyridin-3-yl)-2-fluorocyclopropane-1-carboxamide], for which the Kd on TYK2 JH2 (setting [2]) is no more than 100 nM. Also, in assay [1] (Homo sapiens), the IC50 was no more than 500 nM.
Take `[2H]C([2H])([2H])Nc1ncc(-c2nc3ccccc3o2)c2cc(NC(=O)C3CC3F)ncc12` (racemic) [Example 434, N-(5-(benzo[d]oxazol-2-yl)-8-((methyl-d3)amino)-2,7-naphthyridin-3-yl)-2-fluorocyclopropane-1-carboxamide]: on TYK2 JH2 (setting [2]), the Kd is no more than 100 nM. The IC50 in assay [1] was no more than 500 nM.
`[2H]C([2H])([2H])Nc1ncc(-c2nc3cc(OC)ccc3o2)c2cc(NC(=O)[C@H]3C[C@H]3C)ncc12` (racemic) [Example 436, N-(5-(5-methoxybenzo[d]oxazol-2-yl)-8-((methyl-d3)amino)-2,7-naphthyridin-3-yl)-2-methylcyclopropane-1-carboxamide]: the Kd at TYK2 JH2 (setting [2]) was no more than 100 nM. The IC50 in assay [1] (Homo sapiens) is no more than 500 nM.
For `CNc1ncc(-c2nc3ccc(N4CC(C)OC(C)C4)cn3n2)c2cc(NC(=O)C3CC3)ncc12` (racemic) [Example 480, N-(5-(6-(2,6-dimethylmorpholino)-[1,2,4]triazolo[1,5-a]pyridin-2-yl)-8-(methylamino)-2,7-naphthyridin-3-yl)cyclopropanecarboxamide (trans racemate)], in that order: no more than 100 nM and no more than 500 nM.
In the same order, the values of `[2H]C([2H])([2H])Nc1ncc(-c2nc3ccccn3n2)c2cc(NC(=O)C3CC3F)ncc12` (racemic) [Example 564, N-(5-([1,2,4]triazolo[1,5-a]pyridin-2-yl)-8-((methyl-d3)amino)-2,7-naphthyridin-3-yl)-2-fluorocyclopropane-1-carboxamide] are no more than 100 nM and no more than 500 nM.
Turning to `[2H]C([2H])([2H])Nc1ncc(-c2nc3ccccn3n2)c2cc(NC(=O)C3CC3F)ncc12` (racemic) [Example 565, N-(5-([1,2,4]triazolo[1,5-a]pyridin-2-yl)-8-((methyl-d3)amino)-2,7-naphthyridin-3-yl)-2-fluorocyclopropane-1-carboxamide], the Kd on TYK2 JH2 (setting [2]) is no more than 100 nM. Moreover, the IC50 in assay [1] was no more than 500 nM.
Take `CNc1ncc(/C=C/c2ccc3c(c2)OCC(COC)O3)c2cc(NC(=O)C3CC3)ncc12` (racemic) [Example 789, (E)-N-(5-(2-(2-(methoxymethyl)-2,3-dihydrobenzo[b][1,4]dioxin-6-yl)vinyl)-8-(methylamino)-2,7-naphthyridin-3-yl)cyclopropanecarboxamide]: at TYK2 JH2 (KINOMEscan KdELECT (Assay A)), the Kd was no more than 100 nM. Besides, the IC50 in assay [1] (Homo sapiens) was no more than 500 nM.
For the compound `CNc1ncc(-c2nc3cc(C4CCN([C@@]5(C)COC[C@H]5O)CC4)ccc3o2)c2cc(NC(=O)C3CC3)ncc12` (single isomer, unassigned) [Example 261], the Kd on TYK2 JH2 (setting [2]) is no more than 100 nM. For the same compound, in assay [1] (Homo sapiens), the IC50 was no more than 500 nM.
In the same order, the values of `CNc1ncc(-c2nc3cc(C4CCN([C@]5(C)COC[C@@H]5O)CC4)ccc3o2)c2cc(NC(=O)C3CC3)ncc12` (single isomer, unassigned) [Example 262] are no more than 100 nM and no more than 500 nM.
In the same order, the values of `CNc1ncc(-c2nc3cc(N4CCO[C@H](C(C)(F)F)C4)ccc3o2)c2cc(NC(=O)C3CC3)ncc12` (single isomer, unassigned) [Example 331] are no more than 100 nM and no more than 500 nM.
For `CNc1ncc(-c2nc3cc(N4CCO[C@@H](C(C)(F)F)C4)ccc3o2)c2cc(NC(=O)C3CC3)ncc12` (single isomer, unassigned) [Example 332], in that order: no more than 100 nM and no more than 500 nM.
Regarding `CNc1ncc(-c2nc3cc(OC)ccc3o2)c2cc(NC(=O)[C@@H]3C[C@@H]3C(F)F)ncc12` (single isomer, unassigned) [Example 394], the Kd at TYK2 JH2 (setting [2]) is no more than 100 nM. In addition, the IC50 in assay [1] (Homo sapiens) was no more than 500 nM.
